Source: US9585897B2, “Anti-infective hydroxy-phenyl-benzoates and methods of use” (priority 2008, dated 2017)

What was measured:
[1] = tested on: three distinct S. aureus strains; test: NSAID effect on phenotypic or genotypic characteristics of S. aureus in vitro; assay type: cell-based, Staphylococcus aureus
From the text: These findings also substantiate the concept that the anti-infective properties of aspirin likely occur by both platelet-dependent (aspirin) and platelet independent (SAL) mechanisms. Thus, the discovery of adjunctive use of SALs for MRSA infections are particularly relevant given: 1) long-term and extensive experience of aspirin for a variety of clinical indications; 2) its well-defined pharmacokinetics; and 3) its excellent adverse event and safety profiles.

[2] = tested on: SA strains SH1000 (MSSA), USA300 (MRSA); test: Gene expression quantified by realtime PCR, statements covering both SA strains; assay type: cell-based, Staphylococcus aureus
strain RN6390 = test: Rabbit model of IE, aspirin alone 4 to 12 mg/kg/d for 4 d; assay type: in vivo
Description: To begin to assess the in vitro data sets for in vivo relevance, the rabbit model of IE as described by […] et al. Handbook of Animal Models of Infection. Academic Press, New York, N.Y., was utilized. Animals with pre-established IE caused by strain RN6390 were administered a wide range of iv aspirin dose regimens (4 to 12 mg/kg/d for 4 d therapy). This range affords human-equivalent sera levels in rabbits as described in Kupferwasser et al. Circulation. 1999 99:2791-7.

S. aureus IE = test: Rabbit model of S. aureus IE, aspirin, vancomycin or both for 2 d; assay type: in vivo
Description: In the rabbit model of S. aureus IE, two intravenous (iv) aspirin dose regimens designed to encompass those used in a previous aspirin-alone efficacy study (4 or 8 mg/kg/d) were employed. Animals received aspirin alone, vancomycin alone at a low dose regimen (7.5 mg/kg bid iv), or the two agents combined. Treatment was only for 2 d, based on the rationale that as the in vivo effects of vancomycin are traditionally slow in onset, maximal disclosure of any synergistic effect of the two compounds may emerge at this early time point.

[3] = tested on: S. aureus strains MSSA (6850), MRSA (COL), RN6390, SH1000, sigB operon deleted strains; test: Rabbit IE model with a range of S. aureus strains; assay type: in vivo
[4] = Plasma prostacyclin levels after aspirin dosing
[5] = tested on: S. aureus: ISP479C, Newman and COL; test: In vitro MICs of aspirin and SAL; assay type: cell-based, Staphylococcus aureus; details: 10-50 ug/ml up to 8 mg/ml
S. aureus [6] = assay type: cell-based, Staphylococcus aureus; details: for agr expression: dose-dependent, SAL at 25 or 50 μg/ml, DICL, 2.5 or 5 μg/ml
[7] = tested on: S. aureus: ISP479C, Newman and COL; details: physiologically relevant drug concentrations; cited from earlier work
[8] = tested on: S. aureus (9 individual strains); test: S. aureus-to-fibrinogen or -fibronectin binding, solid-phase assays; assay type: cell-based, Staphylococcus aureus; details: pre-exposed to SAL 30 and 50 μg/ml; composite of 9 strains; dose-dependent
From the text: Induction of endovascular infections is linked to the microbial binding to relevant vascular damage sites.
Fibrinogen and fibronectin play key roles as ligands for S. aureus binding to cellular docking sites (e.g., platelets and endothelial cells), as well as bridging molecules that facilitate these same interactions in which additional factors are operative (e.g., gC1qR-platelet or endothelial cell binding). Peerschke and Ghebrehiwet, Immunobiology.
Mean reduction (±SD) vs. control (100%). Data are composite results of laboratory S. aureus RN6390, COL, Newman, and ISP479C, and clinical MRSA 67-0, 6850, Duke 28, Duke 153, and Duke 237. […] Key: A P<0.005; B <P 0.001.

[9] = tested on: S. aureus FDA 486 and rsbU/V/W mutants; assay type: cell-based, Staphylococcus aureus
S. aureus [10] = test: sarA-repressible genes, lipase and protein A; details: in the presence of SAL
S. aureus α-toxin = assay type: cell-based, Staphylococcus aureus
S. aureus [11] = test: Solid-phase plate assay, adherence to fibrin and platelet-fibrin matrices; assay type: cell-based, Staphylococcus aureus; details: organism pre-exposure to SAL in vitro
Description: A solid-phase plate assay was used to quantify the impact of SAL on the ability of S. aureus to adhere to fibrin and platelet-fibrin matrices. Platelet-rich (PRP) or platelet-free plasma (PFP) from control animals or those given a single-dose of aspirin iv (8 mg/kg) 5 hr prior to plasma isolation, were used to generate such matrices. […] Kupferwasser et al. Circulation. 1999 99:2791-7. These strains bound equally to control matrices and those constructed from aspirin-treated animals (data not shown).

S. aureus [12] = test: Protease activity in S. aureus supernatants; assay type: cell-based, Staphylococcus aureus; details: in the presence of SAL
[13] = tested on: SA strains SH1000 (MSSA), USA300 (MRSA); test: Antibiotic resistance phenotype (antibiotic MIC) in presence of salicylates; details: vs. both strains
SH1000 (MSSA) = test: Gene expression quantified by realtime PCR, strain SH1000; details: early log phase (2-4 hr); 25 μg/ml
[14] = tested on: SA strains SH1000 (MSSA), USA300 (MRSA); test: Hemolysin phenotype compared to gene expression; details: in parallel to hla; 25 μg/ml
USA300 (MRSA) = test: Gene expression quantified by realtime PCR, strain USA300; details: early log phase (2-4 hr); 25 μg/ml

## CC(=O)Oc1ccccc1C(=O)O [aspirin, acetylsalicylic acid]
[1]
  changes in phenotypic or genotypic characteristics: neither aspirin (parent compound of SAL) nor indomethacin caused detectable changes
[2]; 25 μg/ml
  modulation of gene expression or hemolysis: limited modulation
Strain RN6390; 8 mg/kg/d
  beneficial effects of 8 mg/kg/d versus lower (4 mg/kg/d) or higher (12 mg/kg/d) dose regimens: significantly exceeded
Strain RN6390; aspirin 12 mg/kg/d
  beneficial effects at increased dose: paradoxical loss
Strain RN6390; iv aspirin 4 to 12 mg/kg/d for 4 d
  vegetation weight, and vegetation and kidney bacterial densities: consistent and dose-dependent reduction
Strain RN6390; rabbit, in vivo
  mass of echocardiographic detectable cardiac valve vegetations: dramatic reductions
S. aureus IE; aspirin 8 mg/kg/d iv
  bacterial counts in vegetations and kidneys: significantly reduces
[3]; RN6390 and rsbU-repaired variant SH1000
  effects of aspirin treatment across strains: Equivalent salutary effects
[3]; strains deleted of their entire sigB operon
  impact of aspirin: dampened
[4]; 12 mg/kg aspirin dosing
  prostacyclin generation: prolonged suppression
[4]; 4 or 8 mg/kg aspirin
  prolonged suppression of prostacyclin generation: neither at 4 or 8 mg/kg
[5]
  growth inhibition (in vitro MIC testing): no substantial growth inhibition

## O=C(O)c1cc(O)ccc1O [GTA, gentisic acid]
[2]; 25 μg/ml
  gene expression: did not alter

## O=C(O)Cc1ccccc1Nc1c(Cl)cccc1Cl [DICL, diclofenac]
S. aureus [6]
  agr expression: reduced

## COc1ccc2c(c1)c(CC(=O)O)c(C)n2C(=O)c1ccc(Cl)cc1 [indomethacin]
[1]
  changes in phenotypic or genotypic characteristics: neither aspirin (parent compound of SAL) nor indomethacin caused detectable changes

## O=C(O)c1ccccc1O [SAL, salicylic acid]
[2]
  regulatory and VF gene expression in MSSA and MRSA: significantly modulate
[2]; 25 μg/ml
  modulation of gene expression or hemolysis: limited modulation
S. aureus [6]
  hla expression: significantly reduced
  protein A gene expression (spa): increased
  sarA (P1) expression: down-regulating
  sarC (P3) expression: up-regulating
  agr expression: reduced
[7]
  intrinsic bacteriostatic or bactericidal effects: no evident intrinsic bacteriostatic or bactericidal effects
[8]
  fibrinogen and fibronectin binding: significant reductions
[9]
  sigB expression (as measured by increases in asp23 expression): induces
[3]; same in vivo efficacy study carried out with SAL
  in vivo efficacy compared with aspirin: equivalent results to aspirin alone
S. aureus [10]
  Lipase activity increase: ~2.6 fold
  protein A expression increase: ~20%
S. aureus α-toxin
  Hla protein production: dose dependent reduction
  thrombolysis and hemolysis by supernates: reduced
  α-toxin elaboration: reduced
S. aureus [11]
  binding to fibrin and platelet-fibrin matrices: Significant reductions
S. aureus [12]
  protease activity in supernatants: increased up to five-fold
[5]
  growth inhibition (in vitro MIC testing): no substantial growth inhibition

## O=C(O)c1cc(-c2ccc(F)cc2F)ccc1O [DIF, 5-(2,4-difluorophenyl)-2-hydroxy-benzoic acid]
[2]
  regulatory and VF gene expression in MSSA and MRSA: significantly modulate
[2]; in vitro, MRSA including USA300
  effectiveness relative to SAL in suppressing virulence factor regulation or expression in MRSA: approximately 10 fold
[2]; log phase
  reduction of RNAIII (agr), hla, sspA compared with SAL: ten-fold higher reduction
[13]
  increases in ciprofloxacin MIC: prevented increases
SH1000 (MSSA)
  suppression of agr RNAIII, hla, and vraR: > 20 fold
[14]
  Hemolysis phenotypes: suppressed
USA300 (MRSA)
  expression of agr RNAIII, hla, mprF, and sspA: suppressed

## CN[C@H](CC(C)C)C(=O)N[C@H]1C(=O)N[C@@H](CC(N)=O)C(=O)N[C@H]2C(=O)N[C@H]3C(=O)N[C@H](C(=O)N[C@H](C(=O)O)c4cc(O)cc(O)c4-c4cc3ccc4O)[C@H](O)c3ccc(c(Cl)c3)Oc3cc2cc(c3O[C@@H]2O[C@H](CO)[C@@H](O)[C@H](O)[C@H]2O[C@H]2C[C@](C)(N)[C@H](O)[C@H](C)O2)Oc2ccc(cc2Cl)[C@H]1O [vancomycin]
S. aureus IE; vancomycin 7.5 mg/kg bid iv
  bacterial counts in vegetations and kidneys: significantly reduces
